Literature values as cited in patent US20070218033A1, “Composition and method of treating hepatitis C” (priority 1991, published 2007).
Like-named read-outs stand apart in the source and are kept apart here. Where no end group is shown, it is not given here.

Legend:
[1] = system: HCV-related diseases; details: in vivo
[2] = system: response to influenze vaccine; details: subcutaneously twice weekly
[3] = system: hepatitis B virus (HBV); details: treated for a year
[4] = system: nonsmall cell lung cancer
[5] = system: Woodchuck Hepatitis Virus; details: woodchuck infected with Woodchuck Hepatitis Virus
[6] = system: natural killer-cell activity; details: THNα1 and interferon together; immunosuppressed mice
[7] = system: chronic HCV infection
[8] = system: chronic hepatitis C (NANB hepatitis)
[9] = system: post-transfusion NANB hepatitis
[10] = system: chronic NANB hepatitis; details: for proportion of patients with normal ALT levels at week 48: after treatment
[11] = 900 μgrams/m^2 subcutaneously after radiotherapy

## Nc1nc2c(ncn2COCCO)c(=O)[nH]1 [acyclovir]
[1]
  effectiveness in HCV-related diseases: ineffective

## THNα1: 28 amino acidic polypeptide, molecular weight 3100, initially isolated from TF-5, sequenced and chemically synthesized (SDAAVDTSSEITTKDLKEKKEVVEEAEN; not fully specified; ends and bridges not checked; UniProt P06454 2-29, looked up)
[2]; drug recipients
  clinical or biochemical toxicity: No clinical or biochemical toxicity
[2]; six weeks post-vaccine
  levels of antibody to influenza versus controls: higher levels
[3]; pooled THNα1 (5) and TF-5 (2) patients
  patients with reduced levels of serum HBV DNA: 6 of the 7
[3]; pooled THNα1 and TF-5 patients
  patients initially positive for serum HBsAg who subsequently cleared this antigen: 5 of 6
[4]; [11]
  T-cell numbers: no increase
  radiation-suppressed immune function: some restoration
[4]; 900 μgrams/m^2 subcutaneously twice weekly, or daily for two weeks then twice weekly, both treatment groups
  relapse-free survival and overall survival versus placebo group: greater
[5]
  viral DNA replication: suppressed
[6]
  effect on natural killer-cell activity: synergistic effect

## α-interferon
[7]; 2 MU subcutaneously three times weekly for six months, 21 patients
  mean serum ALT and histological features of the liver: improved significantly
[7]; 2 MU subcutaneously three times weekly for six months, number of patients
  other patients with a decrease in mean ALT of more than 50%: three
[7]; 2 MU subcutaneously three times weekly for six months, ten of 21 patients
  complete response (decline in mean serum ALT to the normal range during therapy): 48%
[7]; 2 MU three times weekly for six months, two patients
  patients still with normal ALT values six to twelve months after discontinuation of therapy: 10%
[8]; 1 MU
  relapse within six months after the completion of treatment: 44%
[8]; 1 MU three times weekly for 24 weeks, nine of sixteen patients
  responded to treatment (serum ALT): 56%
[8]; 3 MU
  relapse within six months after the completion of treatment: 51%
[8]; 3 MU three times weekly for 24 weeks
  liver histology (regression of lobular and periportal inflammation): histologic improvement
[8]; 3 MU three times weekly for 24 weeks, 22 of the 26 patients who responded
  serum ALT level became completely normal: 85%
[9]; 1 MU/day
  side effects: virtually absent
[9]; 5 MU daily in seven patients, 1 MU daily in three patients, ten patients
  patients who improved their serum alanine transaminase (ALT) levels within one month of starting therapy: eight of ten
[9]; 5 MU/day dose
  side effects: common
[9]; three patients with post-treatment liver biopsies
  degree of portal inflammation and loss of parenchymal hepatocytic necrosis in post-treatment liver biopsies: marked improvement
[10]; 1 MU group
  proportion of patients with normal ALT levels at 24 weeks: 45%
  proportion of patients with normal ALT levels at week 48: 20%
[10]; 1 MU three times a week
  mean serum ALT levels during the 24 week treatment period: decreased
[10]; 3 MU group
  proportion of patients with normal ALT levels at 24 weeks: 39%
  proportion of patients with normal ALT levels at week 48: 28%
[10]; 3 MU three times a week
  decrease of mean serum ALT levels during the 24 week treatment period: statistically significant
[10]; fraction of the responders
  relapse in disease activity among responders when interferon was stopped: approximately half
[10]; higher dose group (3 MU)
  severity of histological changes in repeat liver biopsy specimens: significant decrease
[10]; lower dose group (1 MU)
  severity of histological changes in repeat liver biopsy specimens: not in the lower dose group
